Where “and” joins values, the source holds several entries; their conditions need not be identical. Equal values may be shown once.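 Each compound was tested at five concentrations against cells in 96-well plates for 48 hours. GI50 marks 50% less growth.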 Calls of active or inactive are those of the source. Rule as the data show it: active = GI50 up to about 1.1 µM and inactive = higher.
Assays:
Test in all cases: NCI-60 cell line screen, 48 h
KM12 = test system: KM12
LOX IMVI = test system: LOX IMVI
MCF7 = test system: MCF7
NCI/ADR-RES = test system: NCI/ADR-RES
SN12C = test system: SN12C
HCT-116 = test system: HCT-116
UACC-257 = test system: UACC-257
M14 = test system: M14
A549 = test system: A549
MOLT-4 = test system: MOLT-4
T47D = test system: T47D
ACHN = test system: ACHN
NCI-H226 = test system: NCI-H226
UO-31 = test system: UO-31
EKVX = test system: EKVX
SR = test system: SR
MDA-MB-231 = test system: MDA-MB-231
UACC-62 = test system: UACC-62
HL-60 = test system: HL-60
K562 = test system: K562

Row | SMILES | GI50 (KM12) | GI50 (LOX IMVI) | GI50 (MCF7) | GI50 (NCI/ADR-RES) | GI50 (SN12C) | GI50 (HCT-116) | GI50 (UACC-257) | GI50 (M14) | GI50 (A549) | GI50 (MOLT-4) | GI50 (T47D) | GI50 (ACHN) | GI50 (NCI-H226) | GI50 (UO-31) | GI50 (EKVX) | GI50 (SR) | GI50 (MDA-MB-231) | GI50 (UACC-62) | GI50 (HL-60) | GI50 (K562)
1 | O=C(O)c1ccccc1-c1ccccc1C(=O)Nc1ccc2c(c1)Cc1cc(F)ccc1-2 | 24.5 µM (inactive) | 19.7 µM (inactive) | 27.5 µM (inactive) | 36.5 µM (inactive) | 12.3 µM (inactive) | 16 µM (inactive) | 22.1 µM (inactive) | 19.7 µM (inactive) | 24.5 µM (inactive) | 26.7 µM (inactive) | 22.1 µM (inactive) | 21.2 µM (inactive) | 30.5 µM (inactive) | 27.8 µM (inactive) | 27.1 µM (inactive) | 18 µM (inactive) | 26.3 µM (inactive) | 17.7 µM (inactive) | – | –
2 | Nc1ccn(C2OC(COC(=O)C34CC5CC(CC(C5)C3)C4)C(O)C2O)c(=O)n1 (stereo unspecified) | > 100 µM (inactive) | 7.01 µM (inactive) | 4.81 µM (inactive) | > 100 µM (inactive) | > 100 µM (inactive) | 2.75 µM (inactive) | > 100 µM (inactive) | 0.817 µM (active) | 0.773 µM (active) | 0.0679 µM (active) | > 100 µM (inactive) | 1.77 µM (inactive) | > 100 µM (inactive) | > 40.5 µM (inactive) | > 100 µM (inactive) | – | > 100 µM (inactive) | > 100 µM (inactive) | 0.622 µM (active) | 43.4 µM (inactive)
3 | O=C(O)C(Cc1ccccc1)Cc1ccccc1 | > 100 µM (inactive) | > 100 µM (inactive) | > 100 µM (inactive) | > 100 µM (inactive) | > 100 µM (inactive) | > 100 µM (inactive) | > 100 µM (inactive) | > 100 µM (inactive) | > 100 µM (inactive) | > 100 µM (inactive) | > 100 µM (inactive) | > 100 µM (inactive) | > 100 µM (inactive) | > 100 µM (inactive) | > 100 µM (inactive) | – | > 100 µM (inactive) | > 100 µM (inactive) | > 100 µM (inactive) | > 100 µM (inactive)
4 | CCCCCCCCCCCCCCCCCCNC(=S)N/C=C1/C(=O)C=C(C)OC1=O | 16.6 µM (inactive) | 36.9 µM (inactive) | 29.9 µM (inactive) | 28.6 µM (inactive) | 37.8 µM (inactive) | 30.1 µM (inactive) | 27.5 µM (inactive) | 18 µM (inactive) | 25.9 µM (inactive) | 12.7 µM (inactive) | 31 µM (inactive) | 22.9 µM (inactive) | 32.9 µM (inactive) | 16.9 µM (inactive) | 20.6 µM (inactive) | – | 33 µM (inactive) | 30.2 µM (inactive) | 3.31 µM (inactive) | –
5 | COc1c(C(=O)CC2c3c(cc4oc(C)cc(=O)c4c3OC)OC(=N)C2c2nc3ccccc3[nH]2)c(O)c(OC)c2occc12 (stereo unspecified) | > 100 µM (inactive) | > 100 µM (inactive) | > 100 µM (inactive) | > 100 µM (inactive) | > 100 µM (inactive) | > 100 µM (inactive) | > 100 µM (inactive) | > 100 µM (inactive) | > 100 µM (inactive) | > 100 µM (inactive) | > 100 µM (inactive) | > 100 µM (inactive) | > 100 µM (inactive) | > 100 µM (inactive) | > 100 µM (inactive) | – | > 100 µM (inactive) | > 100 µM (inactive) | > 100 µM (inactive) | > 100 µM (inactive)
6 | CC(=O)NCCCCN(CCCNC(C)=O)C(=O)OCc1ccccc1 | > 100 µM (inactive) | > 100 µM (inactive) | > 100 µM (inactive) | > 100 µM (inactive) | > 100 µM (inactive) | > 100 µM (inactive) | > 100 µM (inactive) | > 100 µM (inactive) | > 100 µM (inactive) | > 100 µM (inactive) | > 100 µM (inactive) | > 100 µM (inactive) | > 100 µM (inactive) | 64.3 µM (inactive) | > 100 µM (inactive) | – | > 100 µM (inactive) | > 100 µM (inactive) | > 100 µM (inactive) | > 100 µM (inactive)
7 | C=C1C(=O)OC2CC1C(OC(C)=O)C/C(C)=C/CC/C(C)=C\CCC2(C)O (stereo unspecified) | – | 2.46 µM (inactive) and 2.14 µM (inactive) | 3.8 µM (inactive) and 3.74 µM (inactive) | 3.66 µM (inactive) and 3.49 µM (inactive) | 4.55 µM (inactive) and 3.09 µM (inactive) | 2.08 µM (inactive) and 2.91 µM (inactive) | 3.03 µM (inactive) and 5.11 µM (inactive) | 5.83 µM (inactive) and 6.1 µM (inactive) | 16 µM (inactive) and 17.2 µM (inactive) | 2.22 µM (inactive) and 1.88 µM (inactive) | 3.4 µM (inactive) and 4.56 µM (inactive) | 4.23 µM (inactive) and 2.37 µM (inactive) | – | 3.24 µM (inactive) and 6.12 µM (inactive) | 3.81 µM (inactive) and 3.73 µM (inactive) | 1.29 µM (inactive) | 7.13 µM (inactive) and 8.95 µM (inactive) | – | 1.23 µM (inactive) and 655 nM (active) | 1.39 µM (inactive) and 2.54 µM (inactive)
8 | CCOC(=O)/C(C(N)=O)=C(O)/C(O)=C/C(=O)c1ccc(Cl)cc1 | 17.3 µM (inactive) | 16.3 µM (inactive) | 23.8 µM (inactive) | 21.4 µM (inactive) | 16.5 µM (inactive) | 14.1 µM (inactive) | 16 µM (inactive) | 21.2 µM (inactive) | 32.4 µM (inactive) | 20.1 µM (inactive) | 18.6 µM (inactive) | 20 µM (inactive) | 23.2 µM (inactive) | 18.6 µM (inactive) | 25.9 µM (inactive) | 21.7 µM (inactive) | 17.3 µM (inactive) | 20.6 µM (inactive) | – | –
9 | CC1/C(=N/O)CC(c2ccccc2)N(N=O)C1c1ccccc1 (stereo unspecified) | > 100 µM (inactive) | > 100 µM (inactive) | > 100 µM (inactive) | > 100 µM (inactive) | > 100 µM (inactive) | > 100 µM (inactive) | > 100 µM (inactive) | > 100 µM (inactive) | > 100 µM (inactive) | > 100 µM (inactive) | > 100 µM (inactive) | > 100 µM (inactive) | > 100 µM (inactive) | > 100 µM (inactive) | > 100 µM (inactive) | – | > 100 µM (inactive) | > 100 µM (inactive) | > 100 µM (inactive) | > 100 µM (inactive)
10 | N#Cc1c(N)nc2c(C#N)c(N)cc3c2c1Oc1ccccc1-3 | 74 µM (inactive) | > 100 µM (inactive) | > 100 µM (inactive) | > 100 µM (inactive) | > 100 µM (inactive) | > 100 µM (inactive) | > 100 µM (inactive) | > 100 µM (inactive) | > 100 µM (inactive) | > 100 µM (inactive) | > 100 µM (inactive) | > 100 µM (inactive) | > 100 µM (inactive) | > 100 µM (inactive) | > 100 µM (inactive) | – | > 100 µM (inactive) | > 100 µM (inactive) | > 100 µM (inactive) | > 100 µM (inactive)
11 | C=C1CC(C#N)(C#N)[C@@H]2CC3CCCC3[C@H]12.C=C1CC(C#N)(C#N)[C@H]2C3CCCC3C[C@@H]12 (stereo partly specified) | 20.1 µM (inactive) | – | 16.3 µM (inactive) | 23.9 µM (inactive) | 15.7 µM (inactive) | 4.99 µM (inactive) | – | 15.6 µM (inactive) | 10 µM (inactive) | 13.1 µM (inactive) | 31.9 µM (inactive) | 24.8 µM (inactive) | 25.3 µM (inactive) | 20.7 µM (inactive) | 24.2 µM (inactive) | 14.6 µM (inactive) | 22 µM (inactive) | 25.9 µM (inactive) | 20.5 µM (inactive) | 16.8 µM (inactive)
12 | CN(Cc1ccccc1)c1cc(=O)n(C)c(=O)[nH]1 | – | > 100 µM (inactive) | > 100 µM (inactive) | > 100 µM (inactive) | > 100 µM (inactive) | > 100 µM (inactive) | > 100 µM (inactive) | > 100 µM (inactive) | > 100 µM (inactive) | > 100 µM (inactive) | > 100 µM (inactive) | > 100 µM (inactive) | > 100 µM (inactive) | > 100 µM (inactive) | – | – | > 100 µM (inactive) | > 100 µM (inactive) | > 100 µM (inactive) | > 100 µM (inactive)
13 | O=P1(C(O)/C=C/c2ccccc2)N(Cc2ccccc2)[C@@H]2CCCC[C@H]2N1Cc1ccccc1 (stereo partly specified) | 4.66 µM (inactive) | 3.8 µM (inactive) | 3.24 µM (inactive) | 9.53 µM (inactive) | 3.32 µM (inactive) | 3.54 µM (inactive) | 4.32 µM (inactive) | 4.39 µM (inactive) | 4.62 µM (inactive) | 2.93 µM (inactive) | 4.76 µM (inactive) | 3.94 µM (inactive) | 4.51 µM (inactive) | 4.55 µM (inactive) | 6.7 µM (inactive) | – | 10.8 µM (inactive) | 6.98 µM (inactive) | 2.71 µM (inactive) | 3.74 µM (inactive)
14 | CCc1nc(N)nc(N)c1-c1ccc(Cl)c(Cl)c1 [ETOPRINE] | 8.51 µM (inactive) | 3.51 µM (inactive) | 3.05 µM (inactive) | 1.47 µM (inactive) | 6.79 µM (inactive) | 0.574 µM (active) | 8.38 µM (inactive) | 0.675 µM (active) | 0.789 µM (active) | – | > 100 µM (inactive) | 2.86 µM (inactive) | – | 2.52 µM (inactive) | 20.9 µM (inactive) | 0.755 µM (active) | > 100 µM (inactive) | 0.711 µM (active) | > 100 µM (inactive) | –

— ChEMBL document CHEMBL1201862, “PubChem BioAssay data set” (2004)
